Reference: patent publication US12370139B2 (TREEWAY TW001 B.V., priority 2017, dated 2025)
Where two headings read alike, the source gives them in different places.

Legend:
[1] = Dissolution rate of edaravone in water; format: physicochemical; settings: in the presence of an alkalizing agent, especially at at least 0.3 grams edaravone per liter
Source text: The oxides and hydroxides of alkaline metals are preferably selected from NaOH, KOH, LiOH and combinations thereof. The oxides and hydroxides of alkali-earth metals are preferably selected from Ca(OH)2, CaO, Mg(OH)2, MgO and combinations thereof. The salts of weak organic and weak inorganic acids are preferably selected from carbonate, bicarbonate, borate, carboxylate (e.g. lactate, citrate, acetate, formate and oxalate), phosphate, sulfate and combinations thereof. The alkaline amines are preferably selected from tris(hydroxymethyl)aminomethane, ethanolamine, diethanolamine, triethanolamine, N-methyl-glucamine, glucosamine, ethylenediamine, diethylamine, triethylamine, isopropylamine, diisopropylamine, ammonia and combinations thereof. The alkaline amino acids are preferably selected from arginine, histidine, lysine and combinations thereof.

[2] = Example 1: single dose, randomized, two-period, cross-over pharmacokinetic study, oral solution vs i.v. infusion; format: in vivo, human; settings: for Edaravone plasma concentration: time Pre
Experimental: A single dose, randomized, two-period, cross-over study was conducted in 18 healthy male and female human subjects.

[3] = male Wistar rats, cited from earlier work
[4] = Example 2: repeat of the Example 1 study, with edaravone metabolites in plasma; format: in vivo, human; settings: for Edaravone plasma concentration: time Pre; for AUC(0-inf): extrapolated to infinity; for Ratio conjugate-to-parent drug (AUClast): ratio calculated using AUClast (h · μMol/L)
Source text: The study described in Example 1 was repeated, again using 18 healthy male and female human subjects.

[5] = SD rats, in comparison to intravenous administration; cited from earlier work
[6] = test system: APP/PS1 mice; settings: cited from earlier work
[7] = APP/PS1 Mice, oral 33.2 mg/kg/d; cited from earlier work
[8] = rats, oral, dose of 27 mg/kg, suspended with 0.5% CMC-Na, compared to 100% for intravenous; cited from earlier work
[9] = both sexes, human, plasma, iv, Example 2, i.v. infusion 60 mg
[10] = both sexes, human, plasma, iv, Example 2, i.v. infusion (60 mg)
[11] = both sexes, human, plasma, Example 2, oral administration 140 mg
[12] = both sexes, human, plasma, Example 2, oral administration (140 mg)
[13] = i.v. infusion of edaravone 60 mg (n = 18)
[14] = oral administration of edaravone 140 mg (n = 18)

## CC1=NN(c2ccccc2)C(=O)C1 [Edaravone, 3-methyl-1-phenyl-2-pyrazolin-5-one]
[1]
  rate at which edaravone dissolves in water: increased substantially
[2]; Example 1, i.v. infusion (60 mg, 60 minutes)
  Edaravone plasma concentration: 0 ng/mL
[2]; Example 1, oral administration (140 mg)
  Edaravone plasma concentration: 0 ng/mL
[2]; Example 1, oral compared to i.v. infusion
  systemic bioavailability (Fabs): 79%
[2]; Example 1, orally administered
  time at which peak maximum concentrations are reached after administration: about 15 min
[3]; orally administered at 10 mg/kg
  plasma concentration: 243 ng/mL
[3]; orally administered at 30 mg/kg
  plasma concentration: 1314 ng/mL
[3]; orally administered at 100 mg/kg
  plasma concentration: 10999 ng/mL
[4]; Example 2, i.v. infusion (60 mg)
  Edaravone plasma concentration: 0 ng/mL
[4]; Example 2, oral administration (140 mg)
  Edaravone plasma concentration: 0 ng/mL
[4]; Example 2, oral in comparison to intravenous administration
  contribution of gastrointestinal metabolism to the overall plasma metabolism profile: No indication for a relevant contribution of gastrointestinal metabolism
[4]; Example 2, orally administered
  time at which peak maximum concentrations are reached after administration: about 14 min
[4]; both sexes, human, plasma, 140 mg, Example 2, oral compared to i.v. infusion, read-out: systemic bioavailability (Fabs)
  bioavailability: 93%
[4]; [9]
  AUC(0-t): 1220 ng·h/mL
  Cmax: 943 ng/mL
  AUC(0-inf): 1210 ng·h/mL
[4]; [10]
  concentration at 0.17 h: 373 ng/mL
  concentration at 0.5 hrs: 696 ng/mL
  concentration at 1 hrs: 943 ng/mL
  concentration at 1.5 hrs: 298 ng/mL
  concentration at 4 h: 36 ng/mL
  concentration at 6 h: 13 ng/mL
  concentration at 8 h: 7 ng/mL
  concentration at 10 h: 5 ng/mL
[4]; [11]
  AUC(0-t): 2560 ng·h/mL
  Cmax: 3530 ng/mL
  Tmax: 13.8 min
  AUC(0-inf): 2570 ng·h/mL
[4]; both sexes, human, plasma, Example 2, oral administration (140 mg), 0.083 hrs
  concentration at 0.083 h: 1530 ng/mL
[4]; [12]
  concentration at 0.17 h: 2760 ng/mL
  concentration at 0.5 hrs: 2000 ng/mL
  concentration at 1 hrs: 762 ng/mL
  concentration at 1.5 hrs: 388 ng/mL
  concentration at 4 h: 63 ng/mL
  concentration at 6 h: 24 ng/mL
  concentration at 8 h: 13 ng/mL
  concentration at 10 h: 8 ng/mL
[4]; both sexes, human, plasma, Example 2, oral administration (140 mg), 0.25 hrs
  concentration at […]: 3060 ng/mL
[4]; both sexes, human, plasma, Example 2, oral administration (140 mg), 2 hrs
  concentration at 2 hrs: 228 ng/mL
[5]
  oral bioavailability: ~5.8%
[6]
  cognitive deficits (escaping latency in platform testing, annulus crossing in probing test): prominently attenuated
[6]; oral intake
  Aβ levels in the brain: significantly reduced
  Aβ plaque burden in the hippocampus and neocortex: markedly alleviated
[7]
  bioavailability of oral edaravone, of the i.v. delivery: 38%
[8]
  absolute bioavailability (Fabs): 5.23%

## Cc1cc(O[C@@H]2O[C@H](C(=O)O)[C@@H](O)[C@H](O)[C@H]2O)n(-c2ccccc2)n1 [Glucuronide conjugate]
[4]; [13]
  Ratio conjugate-to-parent drug (AUClast): 1.4 ± 1.0
[4]; [14]
  Ratio conjugate-to-parent drug (AUClast): 1.8 ± 0.8

## Cc1cc(OS(=O)(=O)O)n(-c2ccccc2)n1 [Sulfate conjugate]
[4]; [13]
  Ratio conjugate-to-parent drug (AUClast): 9.9 ± 2.7
[4]; [14]
  Ratio conjugate-to-parent drug (AUClast): 9.5 ± 2.8
